The values that follow come from ChEMBL document CHEMBL1201862, “PubChem BioAssay data set” (2004).

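Following 48 hours of exposure in 96-well plates, responses at five concentrations were used to interpolate endpoints linearly. GI50 marks 50% less growth.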 Activity calls are given as the source filed them. Rule as the data show it: active = GI50 up to about 1.1 µM and inactive = higher.

Test systems include CCRF-CEM; Hs-578T; NCI-H23; SK-MEL-5; HL-60; DU-145; TK-10; SK-MEL-2; SW-620; A549; UACC-257; HT-29; LOX IMVI; ACHN; KM12; OVCAR-5; MDA-N; SF-295; NCI-H226.
Assay in all cases: inhibition of tumour cell growth, NCI panel, 48 h

Regarding `CC(C)=CCc1cc(C2COc3cc4c(c(O)c3C2=O)C=CC(C)(C)O4)c(O)cc1O` (configuration not stated), the GI50 is 7.53 µM (inactive) in the test with CCRF-CEM; 17.8 µM (inactive) in the test with Hs-578T; 15.6 µM (inactive) in the test with NCI-H23; 11.3 µM (inactive) in the test with SK-MEL-5; 8.63 µM (inactive) in the test with HL-60; 14.5 µM (inactive) in the test with DU-145. Moreover, the GI50 with TK-10 was 16.8 µM (inactive); in the test on SK-MEL-2 it was 17.7 µM (inactive); in the test with SW-620, 22 µM (inactive); in the test with A549, 12.7 µM (inactive); in the test with UACC-257, 12.8 µM (inactive); in the test on HT-29, 16.6 µM (inactive). Moreover, the GI50 was 17.7 µM (inactive) in the test on LOX IMVI; 16.7 µM (inactive) with ACHN; 14.9 µM (inactive) in the test with KM12; 15.6 µM (inactive) in the test on OVCAR-5; 14.4 µM (inactive) with MDA-N; 17.8 µM (inactive) with SF-295.

As for `CC(=O)OC12c3ccccc3C(c3ccccc31)C1C(=O)N(N=C(C)C)C(=O)C12` (configuration not stated), the GI50 in the test with CCRF-CEM, with Hs-578T, in the test on NCI-H23, with SK-MEL-5, with HL-60 and with DU-145 was > 100 µM (inactive) in each case. The GI50 in the test on TK-10, with SW-620, with A549, in the test on NCI-H226, with UACC-257 and in the test with HT-29 was > 100 µM (inactive) throughout. Further, the GI50 with LOX IMVI, with KM12, in the test on OVCAR-5, in the test with MDA-N and in the test on SF-295 was > 100 µM (inactive) each time.

For `CCOC(=O)C1C(c2ccc(OC)cc2)c2c(n[nH]c2O)CC1(O)OCC` (configuration not stated), the GI50 with CCRF-CEM, in the test with Hs-578T, with NCI-H23, with SK-MEL-5, in the test with HL-60 and in the test on DU-145 was > 100 µM (inactive) each time. The GI50 in the test on TK-10, in the test with SK-MEL-2, with SW-620, with A549, with UACC-257 and in the test with HT-29 was > 100 µM (inactive) each time. Moreover, the GI50 was > 100 µM (inactive) in the test on LOX IMVI; > 100 µM (inactive) with ACHN; > 100 µM (inactive) with KM12; > 100 µM (inactive) in the test with OVCAR-5; > 100 µM (inactive) in the test on MDA-N; 44.8 µM (inactive) in the test on SF-295.

For the compound `C=CCNC1=C2C[C@@H](C)C[C@@H](OC)[C@H](OC(=O)CCN(C)C)[C@H](C)/C=C(\C)[C@@H](OC(N)=O)[C@H](OC)/C=C\C=C(/C)C(=O)NC(=CC1=O)C2=O`, the GI50 in the test on CCRF-CEM was 3.09 µM (inactive); in the test on Hs-578T it was 12.1 µM (inactive); with NCI-H23, 0.0547 µM (active); with SK-MEL-5, 0.0508 µM (active); with HL-60, 0.362 µM (active); in the test on DU-145, 0.993 µM (active). Further, the GI50 in the test with TK-10 is 0.0755 µM (active); with SK-MEL-2, 0.059 µM (active); in the test with SW-620 it was 0.0578 µM (active); with A549, 0.0559 µM (active); in the test with UACC-257, 0.0914 µM (active); in the test with HT-29, < 0.01 µM (active). The GI50 in the test with LOX IMVI is 0.0993 µM (active); with ACHN, 0.875 µM (active); with KM12 it was 0.0342 µM (active); with OVCAR-5 it was 2.18 µM (inactive); in the test with MDA-N, 0.0386 µM (active); in the test with SF-295 it was 0.134 µM (active).

As for `O=C(NC1=C(Cl)C(=O)c2ccccc2C1=O)c1ccc(F)cc1`, the GI50 in the test on CCRF-CEM is 0.802 µM (active); with Hs-578T, 8.91 µM (inactive); in the test on NCI-H23 it was 3.27 µM (inactive); with HL-60 it was 0.341 µM (active); in the test with DU-145, 4.68 µM (inactive); in the test with TK-10 it was 5.09 µM (inactive). The GI50 with SW-620 is 0.776 µM (active); with A549, 5.37 µM (inactive); in the test on NCI-H226, 1.1 µM (active); with UACC-257 it was 1.98 µM (inactive); with HT-29 it was 3.49 µM (inactive); in the test with ACHN, 0.938 µM (active). The GI50 is 3.08 µM (inactive) in the test with KM12, 4.85 µM (inactive) in the test on OVCAR-5, 3.33 µM (inactive) with MDA-N and 4.06 µM (inactive) with SF-295.

With `CC(C)(C)c1cc2c(O)c(c1)Cc1cc(C(C)(C)C)cc(c1O)Cc1cc(C(C)(C)C)cc(c1O)Cc1cc(C(C)(C)C)cc(c1O)Cc1cc(C(C)(C)C)cc(c1O)Cc1cc(C(C)(C)C)cc(c1O)Cc1cc(C(C)(C)C)cc(c1O)Cc1cc(C(C)(C)C)cc(c1O)C2`, the GI50 in the test on CCRF-CEM, with Hs-578T, in the test on NCI-H23, in the test on SK-MEL-5, in the test with HL-60 and in the test with DU-145 was > 50 µM (inactive) in each case. Besides, the GI50 with TK-10, in the test with SK-MEL-2, with SW-620, in the test with A549, in the test with NCI-H226 and with UACC-257 was > 50 µM (inactive) throughout. In addition, the GI50 in the test with HT-29, with ACHN, in the test on KM12, in the test with OVCAR-5, in the test with MDA-N and with SF-295 was > 50 µM (inactive) throughout.

For `O=C(C/N=C(\CN(c1ccccc1)c1ccccc1)Oc1c([N+](=O)[O-])cc([N+](=O)[O-])cc1[N+](=O)[O-])N1CCNCC1`, the GI50 in the test on CCRF-CEM was > 100 µM (inactive); in the test on Hs-578T, 25.4 µM (inactive); in the test on NCI-H23 it was > 100 µM (inactive); in the test on SK-MEL-5 it was 28.7 µM (inactive); in the test on HL-60 it was > 100 µM (inactive); in the test on DU-145, > 100 µM (inactive). For the same compound, the GI50 in the test with TK-10, with SW-620, with A549, in the test on NCI-H226, in the test on UACC-257 and with HT-29 was > 100 µM (inactive) each time. The GI50 in the test with ACHN, with KM12, in the test on OVCAR-5, in the test with MDA-N and with SF-295 was > 100 µM (inactive) throughout.

On to `CC[C@@H]1CC[C@@H]2[C@H](CC[C@]3(C)[C@@H](OS(=O)(=O)c4ccc(C)cc4)CC[C@@H]23)[C@H]1COS(=O)(=O)c1ccc(C)cc1`, for which the GI50 with CCRF-CEM, with Hs-578T, in the test on SK-MEL-5, with HL-60, in the test with DU-145 and with TK-10 was > 100 µM (inactive) in each case. The GI50 in the test on SW-620, with A549, in the test with NCI-H226, with UACC-257, with HT-29 and in the test on LOX IMVI was > 100 µM (inactive) in each case. The GI50 in the test with ACHN, with MDA-N and in the test with SF-295 was > 100 µM (inactive) in each case.
